# Data reported in publication PMC8000395, “Effective Small Molecule Antibacterials from a Novel Anti-Protein Secretion Screen” (Microorganisms, 2021).
# “And” between values parts separate entries of the source, which are not always exact repeats. Identical values can stand only once. Like-named read-outs stand apart in the source and are kept apart here.
# Columns and labels:
# E. coli MG1655 LolA = system: E. coli MG1655 LolA; parameters: method as in PMID 23473681; details: read-out: IC50 against E. coli MG1655 LolA; cited from earlier work
# E. coli strains = assay: Antimicrobial activity test, E. coli strains (strain not given with the value); type: cell-based; details: for IC50: strain not given, read-out: Growth inhibition IC50, E. coli strains
# E. coli BL21 = assay: Antimicrobial activity test (growth, OD600); type: cell-based; details: for IC50: Escherichia coli, BL21, BL21, 20 h, 37 °C, OD600, read-out: Bacterial Viability IC50, E. coli BL21
# [1] = system: PhoA secretion in E. coli strain BL21 (pLysS); assay: Luminescence-based HTS assay of in vivo PhoA secretion; type: cell-based; details: for IC50: Escherichia coli, BL21, luminescence-based HTS assay, E. coli BL21, read-out: Inhibition of PhoA Secretion IC50, HTS
# E. coli MC4100 = assay: Antimicrobial activity test (growth, OD600); type: cell-based; details: for IC50: Escherichia coli, MC4100, 20 h, 37 °C, OD600, read-out: Bacterial Viability IC50, E. coli MC4100
# B. subtilis ATCC6633 = assay: Antimicrobial activity test (growth, OD600); type: cell-based; details: for IC50: Bacillus subtilis, ATCC6633, 20 h, 37 °C, OD600, read-out: Bacterial Viability IC50, B. subtilis ATCC6633
# E. coli = details: cited from earlier work
# Gram-positive bacteria = assay: Antimicrobial activity test, summary over Gram-positive bacteria; type: cell-based; details: most Gram-positive bacteria
# [2] = system: PhoA secretion in E. coli MC4100; assay: microbe, parasite or virus in culture; type: cell-based; details: for IC50: Escherichia coli, PNPP colorimetric lab-scale assay, read-out: Inhibition of PhoA Secretion IC50, Lab-Scale
# [3] = system: PhoA secretion in E. coli BW25113; assay: Lab-scale p-nitrophenyl PhoA secretion assay, BW25113; type: cell-based; details: Escherichia coli, read-out: PhoA secretion in vivo IC50, E. coli BW25113
# [4] = Turbidimetric kinetic aqueous solubility assay; type: physicochemical; details: pH 7, aqueous buffer, kinetic from dmso stock, turbidimetry 570 nm, PBS pH 7–7.2, 0.5% DMSO, 1 h; read-out: Aqueous Solubility (soluble at)
# Method: The determination of the aqueous solubility of compounds in this assay is based on the principle of turbidimetry. Turbidimetric methods rely on the measurement of light scattering from precipitate in solution to determine the solubility. Precipitation is identified by an absorbance increase due to blockage of the light by the particles at the wavelength of 570 nm. Compounds, stored in matrix vials (Thermo Fisher) at a stock concentration of 30 mM or 10 mM in 100% Dimethyl sulfoxide (DMSO), were used to make a serial dilution (dose-response) in a 96-well v-bottom propylene plate (Greiner, 651201). Serial dilutions are made to perform the solubility assay; they were made row-wise and start with undiluted compound (30 mM or 10 mM) in the first well and were then 1 over 3 diluted further on. The serial dilutions were eight doses long and contain six compounds per plate maximal (rows B-G). Columns 1 and 12 were filled with 100% DMSO for control purposes. The dose-response plates were 200-times diluted in 300 µL Phosphate Buffered Saline (PBS; pH = 7–7.2 without Ca^2+/Mg^2+) (Gibco, 14190-144) by transferring 1.5 µL of serially diluted compound. […] Dilutions were made by diluting one 96-well plate in two 96-well, flat-bottom, polystyrene plates (Greiner, 655101). These plates were then incubated at room temperature for 1h. After 1h incubation, the plates were read on the envision (Perkin Elmer) at 570 nm.
# The data of this assay is reported as “Soluble at” value for each compound. This “soluble at” value represents the concentration where the compound is still soluble and is the concentration before the first precipitated concentration. The first precipitated concentration is the concentration where the absorbance value is more than five standard deviations higher than the average background absorbance. The average background absorbance and the standard deviation are calculated on the 0.5% DMSO controls in columns 1 and 12.
# HEK293T cells = details: human, 24 h
# Method: Hek293T cells were harvested and diluted obtaining a cell suspension with a concentration of 200,000 cells/mL in complete growth medium (DMEM, 4.5 g/L d-glucose, pyruvate 1 mM, 0.075% bicarbonate and 10% Fetal Bovine serum). Of this cell suspension, 50 µL (10,000/well) was seeded in a 384 well culture plate (white polystyrene, tissue culture treated) and incubated at 37 °C-5% CO2 for 4 h in a moisturized incubator, which enables the cells to adhere. After the incubation, small chemical compounds were diluted in medium and 10 µL of a compound solution was added onto the cells, ending up with the required compound concentration. The cells were incubated for 24 h at 37 °C-5% CO2 in a moisturized incubator where after × µL medium was removed to equalize the liquid levels within one plate ending up with ±25 µL/well. The amount of remaining cells/well was determined with ATPlite^TM 1step (Perkin Elmer) Adenosine TriPhosphate (ATP) monitoring system, which is based on firefly luciferase.
# The cytotoxicity was calculated by subtracting RLU (relative light units) obtained from the cells incubated with a compound from the RLUs obtained from cells in the presence of the vehicle.
# The cytotoxic effect of a test compound was determined as:
# Percent cell death = [1−((RLU determined for sample with test compound present—1) divided by (RLU determined in the presence of vehicle—1))] * 100.
# E. coli BW25113 = assay: Antimicrobial activity test (growth, OD600); type: cell-based; details: Escherichia coli, 20 h, 37 °C, read-out: Bacterial Viability IC50, E. coli BW25113
# [5] = system: PhoA secretion in BW25113ΔtolC; assay: Lab-scale p-nitrophenyl PhoA secretion assay, ΔtolC strain; type: cell-based, E. coli
# [6] = system: E. coli BW25113::imp-2413+; assay: Antimicrobial activity test (growth, OD600); details: Escherichia coli, BW25113, read-out: Viability IC50, BW25113::imp-2413+
# E. coli BW25113ΔtolC = assay: Antimicrobial activity test (growth, OD600); details: for IC50: Escherichia coli, read-out: Viability IC50, BW25113ΔtolC, E. coli strain missing TolC; for Higher sensitivity of ΔtolC and imp-2413+ derivatives compared to BW25113: viability, Figure 5A
# [7] = system: Gram-negative and Gram-positive bacteria; assay: Antimicrobial activity test, summary over Gram-negative and Gram-positive bacteria; type: cell-based; details: 19 Gram-negative and Gram-positive species evaluated
# [8] = system: Staphylococcus aureus ATC6538P; assay: Antimicrobial activity test (growth, OD600); type: cell-based; details: read-out: Bacterial Viability (IC50)
# [9] = Escherichia coli, read-out: Inhibition of PhoA Secretion IC50, Lab-Scale (ΔtolC strain), BW25113ΔtolC, p-nitrophenyl assay
# [10] = E. coli BL21, MC4100 or BW25113
# [11] = Escherichia coli, BW25113, BL21, E. coli BL21, MC4100 or BW25113
# [12] = Staphylococcus aureus, ATC6538P
Structure (SMILES),IC50 (E. coli BL21) [µM],IC50 [3] [µM],IC50 [1] [µM],IC50 (E. coli MC4100) [µM],solubility at 1 h [4],Toxicity of Mammalian Cells (HEK293T) LD50 (HEK293T cells) [µM],IC50 (B. subtilis ATCC6633) [µM],IC50 (E. coli BW25113) [µM],IC50 [2] [µM],"IC50 [5, 9] [µM]",other results
"N=C(N)SCc1ccc(Cl)c(Cl)c1 [A22, S-(3,4-dichlorobenzyl)isothiourea]",–,–,–,–,–,–,–,–,–,–,IC50 (E. coli MG1655 LolA): 200 µM
"[N-]=[N+]=[N-].[Na+] [CC#01, Sodium azide, reference compound]",–,–,–,–,–,–,–,–,–,–,"Growth inhibition of E. coli (E. coli strains; at 4 mM): ~ 80%; Bacterial Viability, E. coli BL21 (value indicates MIC not IC50) (E. coli BL21; NaN3 control): 4000 µM; Inhibition of secreted phosphatase activity ([1]; HTS assay conditions, sodium azide 4 mM positive control): > 90%; Bacterial Viability, E. coli MC4100 (value indicates MIC not IC50) (E. coli MC4100; NaN3 control): 4000 µM; Bacterial Viability, B. subtilis ATCC6633 (value indicates MIC not IC50) (B. subtilis ATCC6633; NaN3 control): >100000 µM; Antibacterial concentration for E. coli (E. coli): 3 to 4.6 mM; Concentration required for any observable inhibition of Gram-positive bacteria (Gram-positive bacteria): > 100 mM; Level of secreted PhoA remaining ([2]; sodium azide, Figure 2A, assay format not stated): ~ 17%"
CN(C)c1c(C(=O)O)cnc2ccccc12 [HSI#07],> 100,19,19,> 100,150 µM and 32.4 µg/mL,60.2,> 100,> 100,26.4,19.9,–
O=C(O)c1cnc2ccc(Cl)cc2c1O [HSI#12],60,19,11.5,> 100,50 µM and 11.8 µg/mL,60.2,> 100,39.7,11.2,26,IC50 (E. coli strains; [10]): < 65 µM and > 45 µM; IC50 (E. coli strains; [11]): 44 to 65 µM; IC50 [6]: 41.4 µM; IC50 (E. coli BW25113ΔtolC): 23.3 µM; Higher sensitivity of ΔtolC and imp-2413+ derivatives compared to BW25113 (E. coli BW25113ΔtolC): 2 to 40 times; Antibacterial character [7]: bacteriocidal
O=C(O)c1cnc2cc(Cl)ccc2c1O [HSI#14],> 100,13.5,13.4,> 100,150 µM and 33.5 µg/mL,60.2,> 100,31.3,14.6,11.5,"IC50 (E. coli strains; [10]): < 65 µM and > 45 µM; IC50 (E. coli strains; [11]): 44 to 65 µM; IC50 [6]: 36.2 µM; IC50 (E. coli BW25113ΔtolC): 17.2 µM; Higher sensitivity of ΔtolC and imp-2413+ derivatives compared to BW25113 (E. coli BW25113ΔtolC): 2 to 40 times; Antibacterial character [7]: bacteriocidal; IC50 ([5]; read-out: Inhibition of PhoA Secretion IC50, Lab-Scale (ΔtolC strain), BW25113ΔtolC, p-nitrophenyl assay): 11.5 µM"
N=C(N)SCc1ccc(Cl)cc1 [S-(4-chlorobenzyl)isothiourea],–,–,–,–,–,–,–,–,–,–,IC50 (E. coli MG1655 LolA): 150 µM
"CC1(C)S[C@@H]2[C@H](NC(=O)[C@H](N)c3ccccc3)C(=O)N2[C@H]1C(=O)O [ampicillin, reference compound]",–,–,–,–,–,–,–,–,–,–,IC50 ([8]; Staphylococcus aureus ATC6538P): 0.01 µM
"CC1(C)S[C@@H]2[C@H](NC(=O)Cc3ccccc3)C(=O)N2[C@H]1C(=O)O [penicillin G, reference compound]",–,–,–,–,–,–,–,–,–,–,"IC50 [8, 12]: 0.5 µM"
"CN[C@H](CC(C)C)C(=O)N[C@H]1C(=O)N[C@@H](CC(N)=O)C(=O)N[C@H]2C(=O)N[C@H]3C(=O)N[C@H](C(=O)N[C@H](C(=O)O)c4cc(O)cc(O)c4-c4cc3ccc4O)[C@H](O)c3ccc(c(Cl)c3)Oc3cc2cc(c3O[C@@H]2O[C@H](CO)[C@@H](O)[C@H](O)[C@H]2O[C@H]2C[C@](C)(N)[C@H](O)[C@H](C)O2)Oc2ccc(cc2Cl)[C@H]1O [vancomycin, reference compound]",–,–,–,–,–,–,–,–,–,–,"IC50 [8, 12]: 17 µM"
